{"source": "paper PMC5640605", "about": "“Fructose-1,6-bisphosphate couples glycolytic flux to activation of Ras” (Nature Communications, 2017)", "target": "T1, Sos1 (Homo sapiens, UniProt Q07889)", "T1 construct": "catalytic part of Sos1 (residues 564–1049)", "T1 sequence (Q07889 564-1049)": "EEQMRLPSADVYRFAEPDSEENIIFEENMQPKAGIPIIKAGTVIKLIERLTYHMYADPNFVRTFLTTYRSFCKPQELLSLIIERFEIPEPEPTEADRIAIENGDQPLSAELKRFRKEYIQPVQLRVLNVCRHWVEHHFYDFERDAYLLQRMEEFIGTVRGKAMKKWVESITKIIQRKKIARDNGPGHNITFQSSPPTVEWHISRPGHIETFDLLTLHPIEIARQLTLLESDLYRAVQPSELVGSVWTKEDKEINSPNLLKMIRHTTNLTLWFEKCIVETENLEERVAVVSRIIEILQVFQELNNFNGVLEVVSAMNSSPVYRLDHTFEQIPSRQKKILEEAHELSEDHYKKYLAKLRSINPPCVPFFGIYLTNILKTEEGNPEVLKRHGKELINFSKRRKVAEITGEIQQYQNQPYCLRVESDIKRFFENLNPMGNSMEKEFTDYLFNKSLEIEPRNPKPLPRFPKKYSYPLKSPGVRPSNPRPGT", "test": "fluorescence-based thermal shift assay (SYPRO Orange) with Langmuir Kd fit; supported by BLI of Sos1/H-Ras complex dissociation (KDapp […])", "assay_type": "binding"}
{"smiles": "O=P(O)(O)OC[C@H]1OC(O)(COP(=O)(O)O)[C@@H](O)[C@@H]1O", "note": "(stereo partly shown) [Fru1,6bisP]", "values": [{"measurement": "Kd", "value": "17.5 ± 2.2", "unit": "mM"}]}
